# Laboratory results: the supplement of paper PMC10307832
# How the values were obtained:
# Assay in all cases: relative viability (nuclei count vs DMSO), 5 days (fraction); higher = more cells survive
# [1] = compound: C[C@@H](N)c1ccc(C(=O)Nc2ccnc3[nH]ccc23)cc1 + C[C@]1(O)C[C@@H](c2nc(-c3ccc4ccc(-c5ccccc5)nc4c3)c3c(N)nccn32)C1 [Linsitinib] (partner 1 µM)
# In short: (§1)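 Lung cancer cell lines in 1536-well plates got either a single drug or a fixed anchor-drug dose together with five library-drug doses (not always all listed) in √10 steps, by pin tool, on the day after seeding. Nuclei were counted after 5 days, and relative viability is the treated-to-vehicle ratio of nuclei counts. Values are medians of duplicate plates.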
# [2] = compound: C1CNCCC1C2=CC(=NN2)C3=CC=NC=C3 + O=C(CCCCCCC(=O)Nc1ccccc1)NO [Vorinostat] (partner 1 µM)
# In short: as §1
# Tanzisertib + Phenformin = compound: O[C@H]1CC[C@H](Nc2ncc3nc(Nc4c(F)cc(F)cc4F)n([C@H]4CCOC4)c3n2)CC1 [Tanzisertib] + N=C(N)NC(=N)NCCc1ccccc1 [Phenformin] (partner 250 µM)
# In short: as §1
# [3] = compound: C1CNCCC1C2=CC(=NN2)C3=CC=NC=C3 + Cc1cc(Nc2cc(N3CCN(C)CC3)nc(Sc3ccc(NC(=O)C4CC4)cc3)n2)n[nH]1 [Tozasertib] (partner 0.1 µM)
# In short: as §1
Cell Line,relative viability ([1]; first compound 0.04 µM),relative viability ([1]; first compound 0.1265 µM),relative viability ([1]; first compound 0.4 µM),relative viability ([1]; first compound 1.265 µM),relative viability ([1]; first compound 4 µM),relative viability ([2]; first compound 0.08 µM),relative viability ([2]; first compound 0.8 µM),relative viability ([2]; first compound 2.53 µM),relative viability ([2]; first compound 8 µM),relative viability (Tanzisertib + Phenformin; first compound 0.08 µM),relative viability (Tanzisertib + Phenformin; first compound 0.253 µM),relative viability (Tanzisertib + Phenformin; first compound 0.8 µM),relative viability (Tanzisertib + Phenformin; first compound 2.53 µM),relative viability (Tanzisertib + Phenformin; first compound 8 µM),relative viability ([3]; first compound 0.08 µM),relative viability ([3]; first compound 0.8 µM),relative viability ([3]; first compound 2.53 µM),relative viability ([3]; first compound 8 µM)
LK-2,0.822,0.542,0.809,0.554,0.721,0.304,0.26,0.363,0.126,0.77,0.517,0.559,0.548,0.228,0.157,0.208,0.182,0.184
LOU-NH91,0.831,0.979,0.778,0.726,0.702,0.925,1.02,1.05,0.955,0.731,0.763,0.746,0.73,0.439,0.673,0.648,0.696,0.58
LU99A,0.607,0.569,0.586,0.617,0.509,0.465,0.45,0.528,0.554,0.971,0.82,0.884,0.813,0.786,0.307,0.267,0.278,0.304
LXF-289,1.02,0.995,0.997,1.09,0.88,0.783,0.785,0.723,0.766,0.55,0.532,0.519,0.545,0.535,0.219,0.196,0.178,0.207
NCI-H23,0.665,0.641,0.779,–,0.519,0.656,–,0.668,0.721,0.808,0.808,0.84,0.795,0.668,0.35,0.422,0.411,0.36
NCI-H322M,1.02,1.12,0.93,–,1.1,0.95,0.854,0.99,0.953,0.788,0.728,0.832,0.81,0.721,0.461,0.462,0.523,0.503
NCI-H358,0.707,0.655,0.732,0.801,0.702,0.492,0.654,0.907,0.617,0.361,0.318,0.322,0.271,0.212,0.106,0.101,0.106,0.0938
NCI-H441,0.626,0.571,0.64,0.483,0.45,0.593,0.944,0.783,0.77,1.12,0.723,0.725,0.853,0.817,0.532,0.613,0.727,0.73
NCI-H460,0.857,0.729,0.823,0.954,0.599,0.484,1.01,0.787,0.683,0.572,0.522,0.489,0.54,0.523,0.474,0.381,0.617,0.449
